In the assay the target is human c-MER catalytic domain (Homo sapiens (Human), UniProt Q12866). Briefly: TR-FRET Kinase Activity Biochemical Assay (LanthaScreen). The settings on record: 10 uM ATP, 1 hour, kinase not given. An outline of the steps:
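Recombinant human c-MER catalytic domain phosphorylated fluorescein-labeled poly-GT substrate. The reaction was stopped with 10 mM EDTA, then 2 nM Tb-labeled anti-phosphotyrosine antibody was added for 30 min. Kinase activity was taken from the 495/520 nm TR-FRET emission ratio after 340 nm excitation.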
Background: TR-FRET usually uses a lanthanide donor and a delayed reading to cut background.

Structures are written as SMILES. Bounds are passed on as bounds.

Sequence of human c-MER catalytic domain (Q12866 587-858): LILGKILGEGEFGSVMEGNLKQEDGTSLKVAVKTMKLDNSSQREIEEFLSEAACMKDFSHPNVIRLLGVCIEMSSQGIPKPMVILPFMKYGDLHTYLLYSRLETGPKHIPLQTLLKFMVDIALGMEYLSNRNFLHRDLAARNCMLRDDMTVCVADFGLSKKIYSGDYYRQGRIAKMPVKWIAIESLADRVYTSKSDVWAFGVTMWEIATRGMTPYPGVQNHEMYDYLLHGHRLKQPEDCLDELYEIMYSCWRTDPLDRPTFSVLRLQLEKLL

Broadly, the IC50 is the point on the concentration scale where inhibition reaches its midpoint. Read a low IC50 as greater potency. `Cn1cc(-c2cnc(N)c(C(=O)N[C@@H]3CCN(C(=O)Oc4cccc(-c5cccc(CN6CCC[C@@H](N)C6)c5)c4)C3)c2)cn1` [Example 338, 3′-(((R)-3-aminopiperidin-1-yl)methyl)-[1,1′-biphenyl]-3-yl (R)-3-(2-amino-5-(1-methyl-1H-pyrazol-4-yl)nicotinamido)pyrrolidine-1-carboxylate] gave an IC50 of 0.01 to 0.1 µM.

On to `Cn1cc(-c2cnc(N)c(C(=O)N[C@@H]3CCN(C(=O)Oc4cccc(-c5cccc(CN6CCC[C@H](N)C6)c5)c4)C3)c2)cn1` [Example 339, 3′-(((S)-3-aminopiperidin-1-yl)methyl)-[1,1′-biphenyl]-3-yl (R)-3-(2-amino-5-(1-methyl-1H-pyrazol-4-yl)nicotinamido)pyrrolidine-1-carboxylate], for which the half-inhibitory concentration (IC50) lay within 0.1 to 1 µM.

Molecule `Cn1cc(-c2cnc(N)c(C(=O)N[C@@H]3CCN(C(=O)Oc4cccc(-c5cccc(CN6CCC(N)CC6)c5)c4)C3)c2)cn1` [Example 340, 3′-((4-aminopiperidin-1-yl)methyl)-[1,1′-biphenyl]-3-yl (R)-3-(2-amino-5-(1-methyl-1H-pyrazol-4-yl)nicotinamido)pyrrolidine-1-carboxylate] yielded an IC50 of 0.1 to 1 µM.

Take `Cn1cc(-c2cnc(N)c(C(=O)N[C@@H]3CCN(C(=O)Oc4cccc(-c5cccc(CN6CCCNCC6)c5)c4)C3)c2)cn1` [Example 341, 3′-((1,4-diazepan-1-yl)methyl)-[1,1′-biphenyl]-3-yl (R)-3-(2-amino-5-(1-methyl-1H-pyrazol-4-yl)nicotinamido)pyrrolidine-1-carboxylate]: the concentration for half-maximal inhibition (IC50) fell in the range of 0.01 to 0.1 µM.

In the case of `Cn1cc(-c2cnc(N)c(C(=O)NC3CN(C(=O)c4ccc(-c5ccccc5)cc4)C3)c2)cn1` [Example 344, N-(1-([1,1′-biphenyl]-4-carbonyl)azetidin-3-yl)-2-amino-5-(1-methyl-1H-pyrazol-4-yl)nicotinamide], the IC50 was greater than 1 µM.

In the case of `Cn1cc(-c2cnc(N)c(C(=O)N[C@H]3CCN(C(=O)c4ccc(-c5ccccc5)cc4)C3)c2)cn1` [Example 346, (S)—N-(1-([1,1′-biphenyl]-4-carbonyl)pyrrolidin-3-yl)-2-amino-5-(1-methyl-1H-pyrazol-4-yl)nicotinamide], the concentration for half-maximal inhibition (IC50) is greater than 1 µM.

For the molecule `Cn1cc(-c2cnc(N)c(C(=O)N[C@@H]3CCCN(C(=O)c4ccc(-c5ccccc5)cc4)C3)c2)cn1` [Example 347, (R)—N-(1-([1,1′-biphenyl]-4-carbonyl)piperidin-3-yl)-2-amino-5-(1-methyl-1H-pyrazol-4-yl)nicotinamide], the 50% inhibitory concentration (IC50) was greater than 1 µM.

`Cn1cc(-c2cnc(N)c(C(=O)N[C@H]3CCCN(C(=O)c4ccc(-c5ccccc5)cc4)C3)c2)cn1` [Example 348, (S)—N-(1-([1,1′-biphenyl]-4-carbonyl)piperidin-3-yl)-2-amino-5-(1-methyl-1H-pyrazol-4-yl)nicotinamide] yielded an IC50 greater than 1 µM.

`Cn1cc(-c2cnc(N)c(C(=O)N[C@@H]3CCN(C(=O)c4ccc(-c5ccccc5C=O)cc4)C3)c2)cn1` [Example 355, (R)-2-amino-N-(1-(2′-formyl-[1,1′-biphenyl]-4-carbonyl)pyrrolidin-3-yl)-5-(1-methyl-1H-pyrazol-4-yl)nicotinamide] showed a 50% inhibitory concentration (IC50) of 0.01 to 0.1 µM.

Take `Cn1cc(-c2cnc(N)c(C(=O)N[C@@H]3CCN(C(=O)c4ccc(-c5cccnc5)cc4)C3)c2)cn1` [Example 356, (R)-2-amino-5-(1-methyl-1H-pyrazol-4-yl)-N-(1-(4-(pyridin-3-yl)benzoyl)pyrrolidin-3-yl)nicotinamide]: the half-inhibitory concentration (IC50) lay in the range of 0.1 to 1 µM.

On to `Cn1cc(-c2cnc(N)c(C(=O)N[C@@H]3CCN(C(=O)c4ccc(-c5c(F)cccc5F)cc4)C3)c2)cn1` [Example 364, (R)-2-amino-N-(1-(2′,6′-difluoro-[1,1′-biphenyl]-4-carbonyl)pyrrolidin-3-yl)-5-(1-methyl-1H-pyrazol-4-yl)nicotinamide], for which the IC50 is 0.01 to 0.1 µM.

The molecule `Cn1cc(-c2cnc(N)c(C(=O)N[C@@H]3CCN(C(=O)c4ccc(-c5ccc(C(F)(F)F)cc5C(F)(F)F)cc4)C3)c2)cn1` [Example 374, (R)-2-amino-N-(1-(2′,4′-bis(trifluoromethyl)-[1,1′-biphenyl]-4-carbonyl)pyrrolidin-3-yl)-5-(1-methyl-1H-pyrazol-4-yl)nicotinamide] returned an IC50 greater than 1 µM.

Take `CN(C)c1ccc(-c2ccc(C(=O)N3CC[C@@H](NC(=O)c4cc(-c5cnn(C)c5)cnc4N)C3)cc2)cc1` [Example 379, (R)-2-amino-N-(1-(4′-(dimethylamino)-[1,1′-biphenyl]-4-carbonyl)pyrrolidin-3-yl)-5-(1-methyl-1H-pyrazol-4-yl)nicotinamide]: the concentration for half-maximal inhibition (IC50) was 0.01 to 0.1 µM.

Molecule `Cn1cc(-c2cnc(N)c(C(=O)N[C@@H]3CCN(C(=O)c4ccc(-c5cccc(C=O)c5)cc4)C3)c2)cn1` [Example 382, (R)-2-amino-N-(1-(3′-formyl-[1,1′-biphenyl]-4-carbonyl)pyrrolidin-3-yl)-5-(1-methyl-1H-pyrazol-4-yl)nicotinamide] registered a concentration for half-maximal inhibition (IC50) of 0.01 to 0.1 µM.

As for `Cn1cc(-c2cnc(N)c(C(=O)N[C@@H]3CCN(C(=O)c4ccc(-c5ccccc5)nc4)C3)c2)cn1` [Example 398, (R)-2-amino-5-(1-methyl-1H-pyrazol-4-yl)-N-(1-(6-phenylnicotinoyl)pyrrolidin-3-yl)nicotinamide], the IC50 is 0.1 to 1 µM.

Molecule `Cc1csc(C(=O)N2CC[C@@H](NC(=O)c3cc(-c4cnn(C)c4)cnc3N)C2)c1` [Example 409, (R)-2-amino-5-(1-methyl-1H-pyrazol-4-yl)-N-(1-(4-methylthiophene-2-carbonyl)pyrrolidin-3-yl)nicotinamide] came in with an IC50 greater than 1 µM.

Turning to `Cn1cc(-c2cnc(N)c(C(=O)N[C@@H]3CCN(C(=O)c4ccc(OC5C=CCCC5)cc4)C3)c2)cn1` (stereo partly drawn) [Example 411, 2-amino-N-((3R)-1-(4-(cyclohex-2-en-1-yloxy)benzoyl)pyrrolidin-3-yl)-5-(1-methyl-1H-pyrazol-4-yl)nicotinamide], the 50% inhibitory concentration (IC50) was in the range of 0.1 to 1 µM.

In turn, `Cn1cc(-c2cnc(N)c(C(=O)N[C@@H]3CCN(C(=O)c4ccc(CCBr)cc4)C3)c2)cn1` [Example 413, (R)-2-amino-N-(1-(4-(2-bromoethyl)benzoyl)pyrrolidin-3-yl)-5-(1-methyl-1H-pyrazol-4-yl)nicotinamide] yielded an IC50 greater than 1 µM.

As for `C=Cc1ccc(C(=O)N2CC[C@@H](NC(=O)c3cc(-c4cnn(C)c4)cnc3N)C2)cc1` [Example 417, (R)-2-amino-5-(1-methyl-1H-pyrazol-4-yl)-N-(1-(4-vinylbenzoyl)pyrrolidin-3-yl)nicotinamide], the IC50 lay in the range of 0.1 to 1 µM.

Regarding `Cn1cc(-c2cnc(N)c(C(=O)N[C@@H]3CCN(C(=O)Cc4cccc(Br)c4)C3)c2)cn1` [Example 421, (R)-2-amino-N-(1-(2-(3-bromophenyl)acetyl)pyrrolidin-3-yl)-5-(1-methyl-1H-pyrazol-4-yl)nicotinamide], the IC50 was greater than 1 µM.

In turn, `Cn1cc(-c2cnc(N)c(C(=O)N[C@@H]3CCN(C(=O)Cc4cccc(-c5ccccc5)c4)C3)c2)cn1` [Example 423, (R)—N-(1-(2-([1,1′-biphenyl]-3-yl)acetyl)pyrrolidin-3-yl)-2-amino-5-(1-methyl-1H-pyrazol-4-yl)nicotinamide] returned a 50% inhibitory concentration (IC50) greater than 1 µM.

`CN1CCN(Cc2ccc(-c3cccc(/C=C/C(=O)N4CC[C@@H](NC(=O)c5cc(-c6cnn(C)c6)cnc5N)C4)c3)cc2)CC1` [Example 431, (R,E)-2-amino-5-(1-methyl-1H-pyrazol-4-yl)-N-(1-(3-(4′-((4-methylpiperazin-1-yl)methyl)-[1,1′-biphenyl]-3-yl)acryloyl)pyrrolidin-3-yl)nicotinamide]: the IC50 was 0.1 to 1 µM.

For the molecule `CN1CCN(CCc2cccc(-c3cccc(C(=O)N4CC[C@@H](NC(=O)c5cc(-c6cnn(C)c6)cnc5N)C4)c3)c2)CC1` [Example 453, (R)-2-amino-5-(1-methyl-1H-pyrazol-4-yl)-N-(1-(3′-(2-(4-methylpiperazin-1-yl)ethyl)-[1,1′-biphenyl]-3-carbonyl)pyrrolidin-3-yl)nicotinamide], the IC50 was greater than 1 µM.

The molecule `Cn1cc(-c2cnc(N)c(C(=O)N[C@@H]3CCN(C(=O)c4cccc(-c5cccc(N)c5)c4)C3)c2)cn1` [Example 457, (R)-2-amino-N-(1-(3′-amino-[1,1′-biphenyl]-3-carbonyl)pyrrolidin-3-yl)-5-(1-methyl-1H-pyrazol-4-yl)nicotinamide] displayed a half-maximal inhibitory concentration (IC50) greater than 1 µM.

Consider `Cn1cc(-c2cnc(N)c(C(=O)N[C@@H]3CCN(C(=O)c4cccc(-c5ccoc5)c4)C3)c2)cn1` [Example 468, (R)-2-amino-N-(1-(3-(furan-3-yl)benzoyl)pyrrolidin-3-yl)-5-(1-methyl-1H-pyrazol-4-yl)nicotinamide], for which the IC50 was greater than 1 µM.

Consider `Cn1cc(-c2cnc(N)c(C(=O)N[C@@H]3CCN(C(=O)c4cccc(C5=CCCCC5)c4)C3)c2)cn1` [Example 475, (R)-2-amino-5-(1-methyl-1H-pyrazol-4-yl)-N-(1-(2′,3′,4′,5′-tetrahydro-[1,1′-biphenyl]-3-carbonyl)pyrrolidin-3-yl)nicotinamide], for which the IC50 was greater than 1 µM.

In the case of `Cn1cc(-c2cnc(N)c(C(=O)N[C@@H]3CCN(C(=O)c4cccc(-c5cccc(N6CCCCC6)c5)c4)C3)c2)cn1` [Example 477, (R)-2-amino-5-(1-methyl-1H-pyrazol-4-yl)-N-(1-(3′-(piperidin-1-yl)-[1,1′-biphenyl]-3-carbonyl)pyrrolidin-3-yl)nicotinamide], the IC50 was greater than 1 µM.

As for `Cn1cc(-c2cnc(N)c(C(=O)N[C@@H]3CCN(C(=O)c4cc(-c5ccccc5)ccc4N)C3)c2)cn1` [Example 486, (R)-2-amino-N-(1-(4-amino-[1,1′-biphenyl]-3-carbonyl)pyrrolidin-3-yl)-5-(1-methyl-1H-pyrazol-4-yl)nicotinamide], the IC50 is 0.1 to 1 µM.

`Cn1cc(-c2cnc(N)c(C(=O)N[C@@H]3CCN(C(=O)c4ccc(-c5ccoc5)cc4)C3)c2)cn1` [Example 487, (R)-2-amino-N-(1-(4-(furan-3-yl)benzoyl)pyrrolidin-3-yl)-5-(1-methyl-1H-pyrazol-4-yl)nicotinamide] gave a 50% inhibitory concentration (IC50) of 0.1 to 1 µM.

The values are drawn from US12378224B2 (Dong-A Socio Holdings Co., Ltd., priority 2016, dated 2025).
